Data taken from US11492385B2, “Long-acting co-agonists of the glucagon and GLP-1 receptors” (Merck Sharp & Dohme Corp., priority 2015, dated 2022).
Starred links: 1 amine or outer side, 2 acyl side, 3 side chain; linkers in the order of their positions; H or OH if unused. Non-standard residues stand in square brackets, D forms with d. Residues, ends and D or L forms follow the SMILES beside them. Groups on a side chain read outwards from the residue. *: point of attachment. Phe(4-CH2NH2) = NCc1ccc(C[C@H](N)C(=O)O)cc1; C18 diacid = O=C(O)CCCCCCCCCCCCCCCCC(=O)*; γGlu = O=C(O)[C@H](CCC(=O)[*:2])N[*:1]; X1 = O=C([C@H]1CCC[C@@H]1N[*:1])[*:2]; Met(O2) = CS(=O)(=O)CC[C@H](N)C(=O)O; αMeD = C[C@](N)(CC(=O)O)C(=O)O; AEEA = NCCOCCOCC(=O)O; Aib = CC(C)(N)C(=O)O

What was measured:
human GCGR = target: T1, human GCGR (Homo sapiens, UniProt P47871); assay: cAMP activity assay, cells expressing human GCGR; assay type: cell-based; settings: for EC50: cAMP production, cells expressing human GCGR, assay buffer with or without 20% human serum (not stated which), read-out: GCGR EC50 human; for hGCGR/hGLP1R (hTone): ratio of human GCGR EC50 to human GLP1R EC50
T1 construct: expressed in transfected cells; kept under Blasticidin and Hygromycin selection
Summary of the method: (§1)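 cAMP production in human GLP1R- or GCGR-expressing cells was read by luminescence after overnight dark incubation at room temperature. Peptides were given as 10-point DMSO dilution series, with native GLP-1 and glucagon as references. Four-parameter logistic fitting gave EC50.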

human GLP1R = target: T2, human GLP1R (Homo sapiens, UniProt P43220); assay: cAMP activity assay, cells expressing human GLP1R; assay type: cell-based; settings: cAMP production, assay buffer with or without 20% human serum (not stated which)
T2 construct: expressed in transfected cells; kept under Blasticidin and Hygromycin selection
Summary of the method: as §1

T2 sequence (P43220 24-463): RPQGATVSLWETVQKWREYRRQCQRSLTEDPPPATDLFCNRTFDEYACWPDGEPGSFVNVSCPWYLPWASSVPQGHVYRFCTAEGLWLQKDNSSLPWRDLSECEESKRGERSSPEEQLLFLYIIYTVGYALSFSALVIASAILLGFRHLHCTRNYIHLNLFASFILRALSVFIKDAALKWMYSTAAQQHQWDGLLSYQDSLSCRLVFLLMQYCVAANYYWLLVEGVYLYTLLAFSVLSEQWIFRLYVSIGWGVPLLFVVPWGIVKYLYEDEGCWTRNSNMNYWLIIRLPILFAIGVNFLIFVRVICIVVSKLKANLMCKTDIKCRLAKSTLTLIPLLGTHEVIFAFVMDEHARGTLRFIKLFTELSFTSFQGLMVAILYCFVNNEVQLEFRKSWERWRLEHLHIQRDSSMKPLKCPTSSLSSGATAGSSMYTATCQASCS
T1 sequence (P47871 26-477): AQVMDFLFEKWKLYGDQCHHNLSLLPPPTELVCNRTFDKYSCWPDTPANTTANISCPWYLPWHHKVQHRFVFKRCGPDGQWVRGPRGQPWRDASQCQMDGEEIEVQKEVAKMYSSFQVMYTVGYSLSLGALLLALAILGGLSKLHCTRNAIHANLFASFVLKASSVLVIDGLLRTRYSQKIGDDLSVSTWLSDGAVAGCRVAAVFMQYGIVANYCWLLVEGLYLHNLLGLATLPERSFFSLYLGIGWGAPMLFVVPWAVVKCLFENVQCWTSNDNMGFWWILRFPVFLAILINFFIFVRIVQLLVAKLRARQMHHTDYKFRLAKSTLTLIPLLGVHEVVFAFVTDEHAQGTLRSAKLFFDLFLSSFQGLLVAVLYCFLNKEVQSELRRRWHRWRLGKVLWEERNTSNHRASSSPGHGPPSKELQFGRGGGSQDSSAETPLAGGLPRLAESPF

Row | SMILES | EC50 (human GCGR) [nM] | hGCGR/hGLP1R (hTone) (human GCGR) | EC50 (human GLP1R) [nM]
1 | CC(C)C[C@H](NC(=O)[C@H](Cc1ccc(O)cc1)NC(=O)[C@H](CCCCN)NC(=O)[C@H](CO)NC(=O)[C@H](Cc1ccc(O)cc1)NC(=O)[C@H](CC(=O)O)NC(=O)[C@H](CO)NC(=O)[C@@H](NC(=O)[C@H](Cc1ccccc1)NC(=O)[C@@H](NC(=O)CNC(=O)[C@H](CCC(N)=O)NC(=O)C(C)(C)NC(=O)[C@@H](N)Cc1c[nH]cn1)[C@@H](C)O)[C@@H](C)O)C(=O)N[C@@H](CC(=O)O)C(=O)N[C@@H](C)C(=O)N[C@@H](CCCNC(=N)N)C(=O)N[C@@H](C)C(=O)N[C@@H](C)C(=O)N[C@@H](CCCCNC(=O)COCCOCCNC(=O)COCCOCCNC(=O)CC[C@H](NC(=O)CCCCCCCCCCCCCCCCC(=O)O)C(=O)O)C(=O)N[C@@H](CC(=O)O)C(=O)N[C@@H](Cc1ccccc1)C(=O)N[C@H](C(=O)N[C@@H](CCC(N)=O)C(=O)N[C@@H](Cc1c[nH]c2ccccc12)C(=O)N[C@@H](CC(C)C)C(=O)N[C@@H](CCS(C)(=O)=O)C(=O)N[C@@H](CC(=O)O)C(=O)N[C@H](C(N)=O)[C@@H](C)O)C(C)C [compound 29] (H-H[Aib]QGTFTSDYSKYLDARAAK([AEEA-AEEA-γGlu-C18 diacid])DFVQWL[Met(O2)]DT-NH2; N-terminus assumed) | 0.79 | 2.93 | 0.27
2 | CC(C)C[C@H](NC(=O)[C@H](Cc1ccc(O)cc1)NC(=O)[C@H](CCCCN)NC(=O)[C@H](CO)NC(=O)[C@H](Cc1ccc(O)cc1)NC(=O)[C@H](CC(=O)O)NC(=O)[C@H](CO)NC(=O)[C@@H](NC(=O)[C@H](Cc1ccccc1)NC(=O)[C@@H](NC(=O)CNC(=O)[C@H](CCC(N)=O)NC(=O)C(C)(C)NC(=O)[C@@H](N)Cc1c[nH]cn1)[C@@H](C)O)[C@@H](C)O)C(=O)N[C@@H](CC(=O)O)C(=O)N[C@@H](C)C(=O)N[C@@H](CCCNC(=N)N)C(=O)N[C@@H](C)C(=O)N[C@@H](C)C(=O)N[C@@H](CCC(N)=O)C(=O)N[C@@H](CCCCNC(=O)COCCOCCNC(=O)COCCOCCNC(=O)CC[C@H](NC(=O)CCCCCCCCCCCCCCCCC(=O)O)C(=O)O)C(=O)N[C@@H](Cc1ccccc1)C(=O)N[C@H](C(=O)N[C@@H](CCC(N)=O)C(=O)N[C@@H](Cc1c[nH]c2ccccc12)C(=O)N[C@@H](CC(C)C)C(=O)N[C@@H](CCS(C)(=O)=O)C(=O)N[C@@H](CC(=O)O)C(=O)N[C@H](C(N)=O)[C@@H](C)O)C(C)C [compound 30] (H-H[Aib]QGTFTSDYSKYLDARAAQK([AEEA-AEEA-γGlu-C18 diacid])FVQWL[Met(O2)]DT-NH2) | 0.1 | 1.66 | 0.06
3 | CC(C)C[C@H](NC(=O)[C@H](Cc1ccc(O)cc1)NC(=O)[C@H](CCCCN)NC(=O)[C@H](CO)NC(=O)[C@H](Cc1ccc(O)cc1)NC(=O)[C@H](CC(=O)O)NC(=O)[C@H](CO)NC(=O)[C@@H](NC(=O)[C@H](Cc1ccccc1)NC(=O)[C@@H](NC(=O)CNC(=O)[C@H](CCC(N)=O)NC(=O)C(C)(C)NC(=O)[C@@H](N)Cc1c[nH]cn1)[C@@H](C)O)[C@@H](C)O)C(=O)N[C@@H](CC(=O)O)C(=O)N[C@@H](C)C(=O)N[C@@H](CCCNC(=N)N)C(=O)N[C@@H](C)C(=O)N[C@@H](C)C(=O)N[C@@H](CCC(N)=O)C(=O)N[C@@H](Cc1ccc(CNC(=O)COCCOCCNC(=O)COCCOCCNC(=O)CC[C@H](NC(=O)CCCCCCCCCCCCCCCCC(=O)O)C(=O)O)cc1)C(=O)N[C@@H](Cc1ccccc1)C(=O)N[C@H](C(=O)N[C@@H](CCC(N)=O)C(=O)N[C@@H](Cc1c[nH]c2ccccc12)C(=O)N[C@@H](CC(C)C)C(=O)N[C@@H](CC(C)C)C(=O)N[C@@H](CC(=O)O)C(=O)N[C@H](C(N)=O)[C@@H](C)O)C(C)C [compound 32] (H-H[Aib]QGTFTSDYSKYLDARAAQ[Phe(4-CH2NH2)]([AEEA-AEEA-γGlu-C18 diacid])FVQWLLDT-NH2; N-terminus assumed) | 0.07 | 2.52 | 0.028

Second part, the molecule after the results:

Row | EC50 (human GCGR) [nM] | hGCGR/hGLP1R (hTone) (human GCGR) | EC50 (human GLP1R) [nM] | SMILES
4 | 0.43 | 3.11 | 0.14 | CC(C)C[C@H](NC(=O)[C@H](Cc1ccc(O)cc1)NC(=O)[C@H](CCCCN)NC(=O)[C@H](CO)NC(=O)[C@H](Cc1ccc(CNC(=O)COCCOCCNC(=O)COCCOCCNC(=O)CC[C@H](NC(=O)CCCCCCCCCCCCCCCCC(=O)O)C(=O)O)cc1)NC(=O)[C@H](CC(=O)O)NC(=O)[C@H](CO)NC(=O)[C@@H](NC(=O)[C@H](Cc1ccccc1)NC(=O)[C@@H](NC(=O)CNC(=O)[C@H](CCC(N)=O)NC(=O)C(C)(C)NC(=O)[C@@H](N)Cc1c[nH]cn1)[C@@H](C)O)[C@@H](C)O)C(=O)N[C@@H](CC(=O)O)C(=O)N[C@@H](C)C(=O)N[C@@H](CCCNC(=N)N)C(=O)N[C@@H](C)C(=O)N[C@@H](C)C(=O)N[C@@H](CCC(N)=O)C(=O)N[C@@H](CC(=O)O)C(=O)N[C@@H](Cc1ccccc1)C(=O)N[C@H](C(=O)N[C@@H](CCC(N)=O)C(=O)N[C@@H](Cc1c[nH]c2ccccc12)C(=O)N[C@@H](CC(C)C)C(=O)N[C@@H](CCS(C)(=O)=O)C(=O)N[C@@H](CC(=O)O)C(=O)N[C@H](C(N)=O)[C@@H](C)O)C(C)C [compound 28] (H-H[Aib]QGTFTSD[Phe(4-CH2NH2)]([AEEA-AEEA-γGlu-C18 diacid])SKYLDARAAQDFVQWL[Met(O2)]DT-NH2)
5 | 0.26 | 0.70 | 0.37 | CC(C)C[C@H](NC(=O)[C@H](Cc1ccc(O)cc1)NC(=O)[C@H](CCCCN)NC(=O)[C@H](CO)NC(=O)[C@H](Cc1ccc(O)cc1)NC(=O)[C@H](CC(=O)O)NC(=O)[C@H](CO)NC(=O)[C@@H](NC(=O)[C@H](Cc1ccccc1)NC(=O)[C@@H](NC(=O)CNC(=O)[C@H](CCC(N)=O)NC(=O)C(C)(C)NC(=O)[C@@H](N)Cc1c[nH]cn1)[C@@H](C)O)[C@@H](C)O)C(=O)N[C@@H](CC(=O)O)C(=O)N[C@@H](C)C(=O)N[C@@H](CCCNC(=N)N)C(=O)N[C@@H](C)C(=O)N[C@@H](C)C(=O)N[C@@H](Cc1ccc(CNC(=O)COCCOCCNC(=O)COCCOCCNC(=O)CC[C@H](NC(=O)CCCCCCCCCCCCCCCCC(=O)O)C(=O)O)cc1)C(=O)N[C@@H](CC(=O)O)C(=O)N[C@@H](Cc1ccccc1)C(=O)N[C@H](C(=O)N[C@@H](CCC(N)=O)C(=O)N[C@@H](Cc1c[nH]c2ccccc12)C(=O)N[C@@H](CC(C)C)C(=O)N[C@@H](CC(C)C)C(=O)N[C@@H](CC(=O)O)C(=O)N[C@H](C(N)=O)[C@@H](C)O)C(C)C [compound 31] (H-H[Aib]QGTFTSDYSKYLDARAA[Phe(4-CH2NH2)]([AEEA-AEEA-γGlu-C18 diacid])DFVQWLLDT-NH2)
6 | 0.3 | 4.00 | 0.07 | CC(C)C[C@H](NC(=O)[C@H](Cc1ccc(O)cc1)NC(=O)[C@H](CCCCN)NC(=O)[C@H](CO)NC(=O)[C@H](Cc1ccc(O)cc1)NC(=O)[C@H](CC(=O)O)NC(=O)[C@H](CO)NC(=O)[C@@H](NC(=O)[C@H](Cc1ccccc1)NC(=O)[C@@H](NC(=O)CNC(=O)[C@H](CCC(N)=O)NC(=O)C(C)(C)NC(=O)[C@@H](N)Cc1c[nH]cn1)[C@@H](C)O)[C@@H](C)O)C(=O)N[C@@H](CC(=O)O)C(=O)N[C@@H](C)C(=O)N[C@@H](CCCNC(=N)N)C(=O)N[C@@H](C)C(=O)N[C@@H](C)C(=O)N[C@@H](CCCCNC(=O)COCCOCCNC(=O)COCCOCCNC(=O)CC[C@H](NC(=O)CCCCCCCCCCCCCCCCC(=O)O)C(=O)O)C(=O)N[C@@H](CC(=O)O)C(=O)N[C@@H](Cc1ccccc1)C(=O)N[C@H](C(=O)N[C@@H](CCC(N)=O)C(=O)N[C@@H](Cc1c[nH]c2ccccc12)C(=O)N[C@@H](CC(C)C)C(=O)N[C@@H](CCS(C)(=O)=O)C(=O)N[C@@](C)(CC(=O)O)C(=O)N[C@H](C(N)=O)[C@@H](C)O)C(C)C [compound 33] (H-H[Aib]QGTFTSDYSKYLDARAAK([AEEA-AEEA-γGlu-C18 diacid])DFVQWL[Met(O2)][αMeD]T-NH2)
7 | 0.64 | 0.53 | 1.2 | CC(C)C[C@H](NC(=O)[C@H](Cc1ccc(O)cc1)NC(=O)[C@H]1CCC[C@@H]1NC(=O)[C@H](CO)NC(=O)[C@H](Cc1ccc(O)cc1)NC(=O)[C@H](CC(=O)O)NC(=O)[C@H](CO)NC(=O)[C@@H](NC(=O)[C@H](Cc1ccccc1)NC(=O)[C@@H](NC(=O)CNC(=O)[C@H](CCC(N)=O)NC(=O)C(C)(C)NC(=O)[C@@H](N)Cc1c[nH]cn1)[C@@H](C)O)[C@@H](C)O)C(=O)N[C@@H](CC(=O)O)C(=O)NC(C)(C)C(=O)N[C@@H](CCCNC(=N)N)C(=O)N[C@@H](C)C(=O)N[C@@H](C)C(=O)N[C@@H](CCCCNC(=O)COCCOCCNC(=O)COCCOCCNC(=O)CC[C@H](NC(=O)CCCCCCCCCCCCCCCCC(=O)O)C(=O)O)C(=O)N[C@@H](CC(=O)O)C(=O)N[C@@H](Cc1ccccc1)C(=O)N[C@H](C(=O)N[C@H]1CCC[C@@H]1C(=O)N[C@@H](Cc1c[nH]c2ccccc12)C(=O)N[C@@H](CC(C)C)C(=O)N[C@@H](CCS(C)(=O)=O)C(=O)N[C@@H](CC(=O)O)C(=O)N[C@H](C(N)=O)[C@@H](C)O)C(C)C [compound 34] (H-H[Aib]QGTFTSDYS[X1]YLD[Aib]RAAK([AEEA-AEEA-γGlu-C18 diacid])DFV[X1]WL[Met(O2)]DT-NH2; N-terminus assumed)
